Assay results taken from patent publication EP2496579B1 (priority 2009, dated 2011).

What was measured:
[1] = target: human α7 neuronal nicotinic receptor (Homo sapiens, UniProt P36544); experiment: biochemical; assay type: binding; settings: read-out: % inhibition, N neuronal alpha -BGTX-sensitive (alpha 7) (antagonist radioligand)
[2] = target: human muscle-type nicotinic receptor (Homo sapiens, UniProt P02708+P07510+Q07001); experiment: biochemical; assay type: binding; settings: read-out: % inhibition, N muscle-type (h) (antagonist radioligand)
[3] = target: T1, agonist site of the human dopamine D5 receptor (Homo sapiens, UniProt P21918); experiment: Human dopamine D5 receptor (agonist radioligand) binding assay; settings: test compound at 1 µmole; 7.5 nM [3H]dopamine; transfected GH4 cells; inhibition of control radioligand specific binding; one single experiment
T1 construct: expressed in transfected cells; host or cells: GH4 cells (membrane homogenates)
From the text: (§1) Four illustrative compounds of this invention have each been tested at a concentration of 1 µmole in a series of 6 binding assays for various […], including dopaminic receptors, neuronal nicotinic receptors and muscular nicotinic receptors. Details of each binding assay procedure are given below.
Human dopamine D5 receptor (agonist radioligand):
The purpose is to evaluate the affinity of compounds for the agonist site of the human dopamine D5 receptor in transfected GH4 cells determined in a radioligand binding assay according to Sunahara et al in Nature (1991) 350:614. The experimental protocol is as follows. Cell membrane homogenates (120 µg protein) are incubated for 60 minutes at 22°C with 7.5 nM [^3H]dopamine in the absence or presence of the test compound in a buffer containing 20 mM Tris-HCl (pH 7.4), 5 mM MgCl2, 0.8 mM DTT, 0.3 mM ascorbic acid and 0.1 mM pyrocatechol. Nonspecific binding is determined in the presence of 10 µM SCH 23390. Following incubation, the samples are filtered rapidly under vacuum through glass fiber filters (GF/B, Packard) 55re-soaked with 0.3% PEI and rinsed several times with ice-cold 50 mM Tris-HCl using a 96-sample cell harvester (Unifilter, Packard). The filters are dried then counted for radioactivity in a scintillation counter (Topcount, Packard) using a scintillation cocktail (Microscint 0, Packard). The results are expressed as a percent inhibition of the control radioligand specific binding. The standard reference compound is dopamine, which is tested in each experiment at several concentrations to obtain a competition curve from which its IC50 is calculated, and from which the % inhibition at 1 µM as indicated in the following table is obtained.

[4] = target: human α4β2 neuronal nicotinic receptor (Homo sapiens, UniProt P17787+P43681); experiment: Neuronal nicotinic receptor (α-BGTX-insensitive) (agonist radioligand) binding assay; settings: test compound at 1 µmole; 0.6 nM [3H]cytisine; transfected SH-SY5Y cells; inhibition of control radioligand specific binding; one single experiment; read-out: % inhibition, N neuronal alpha-BGTX-insensitive (alpha4beta 2) (agonist radioligand)
From the text: as §1
Neuronal nicotinic receptor (α-BGTX-insensitive) (agonists radioligand):
The purpose is to evaluate the affinity of compounds for the human α4β2 neuronal nicotinic receptor expressed in transfected SH-SY5Y cells, determined in a radioligand binding assay according to Gopalakrishnan et al in J. Pharmacol. Exp. Ther. (1996) 276:289. The experimental protocol is as follows. Cell membrane homogenates (30 µg protein) are incubated for 120 min at 4°C with 0.6 nM [^3H]cytisine in the absence or presence of the test compound in a buffer containing 50 mM Tris-HCl (pH 7.4), 120 mM NaCl, 5 mM KCI, 2.5 mM CaCl2 and 1 mM MgCl2. Nonspecific binding is determined in the presence of 10 µM nicotine bitartrate. Following incubation, the samples are filtered rapidly under vacuum through glass fiber filters (GF/B, Packard) presoaked with 0.3% PEI and rinsed several times with ice-cold 50 mM Tris-HCl using a 96-sample cell harvester (Unifilter, Packard). The filters are dried then counted for radioactivity in a scintillation counter (Topcount, Packard) using a scintillation cocktail (Microscint 0, Packard). The results are expressed as a percent inhibition of the control radioligand specific binding. The standard reference compound is nicotine bitartrate, which is tested in each experiment at several concentrations to obtain a competition curve from which its IC50 is calculated, and from which the % inhibition at 1 µM as indicated in the following table is obtained.

[5] = relative to morphine; background statement; cited from earlier work
[6] = target: T2, human dopamine D1 receptor (Homo sapiens, UniProt P21728); experiment: Human dopamine D1 receptor (antagonist radioligand) binding assay; settings: test compound at 1 µmole; 0.3 nM [3H]SCH 23390; transfected CHO cells; inhibition of control radioligand specific binding; one single experiment
T2 construct: expressed in transfected cells; host or cells: CHO cells (membrane homogenates)
From the text: as §1
Human dopamine D1 receptor (antagonist radioligand):
The purpose is to evaluate the affinity of compounds for the human dopamine D1 receptor in transfected CHO cells determined in a radioligand binding assay according to Zhou et al in Nature (1990) 347:76. The experimental protocol is as follows. Cell membrane homogenates (48 µg protein) are incubated for 60 minutes at 22°C with 0.3 nM [^3H]SCH 23390 in the absence or presence of the test compound in a buffer containing 50 mM Tris-HCl (pH 7.4), 5 mM KCI, 5 mM MgCl2, 1.5 mM CaCl2 and 5 mM EDTA. Non-specific binding is determined in the presence of 1 µM SCH 23390. […] The filters are dried then counted for radioactivity in a scintillation counter (Topcount, Packard) using a scintillation cocktail (Microscint 0, Packard). The results are expressed as a percent inhibition of the control radioligand specific binding. […]

[7] = target: T3, Human dopamine D5 receptor (Homo sapiens, UniProt P21918); experiment: Human dopamine D5 receptor (antagonist radioligand) binding assay; settings: test compound at 1 µmole; 0.3 nM [3H]SCH 23390; transfected GH4 cells; inhibition of control radioligand specific binding; one single experiment
T3 construct: expressed in transfected cells; host or cells: GH4 cells (membrane homogenates)
From the text: as §1
Human dopamine D5 receptor (antagonist radioligand):
The purpose is to evaluate the affinity of compounds for the human dopamine […] in transfected GH4 cells determined in a radioligand binding assay according to Sunahara et al in Nature (1991) 350:614. The experimental protocol is as follows. Cell membrane homogenates (20 µg protein) are incubated for 60 minutes at 22°C with 0.3 nM [^3H]SCH 23390 in the absence or presence of the test compound in a buffer containing 50 mM Tris-HCl (pH 7.4), 120 mM NaCl, 5 mM KCI, 5 mM MgCl2 and 1 mM EDTA. Nonspecific binding is determined in the presence of 10 µM SCH 23390. […] The filters are dried then counted for radioactivity in a scintillation counter (Topcount, Packard) using a scintillation cocktail (Microscint 0, Packard). The results are expressed as a percent inhibition of the control radioligand specific binding. […]

T1 sequence (P21918 whole entry): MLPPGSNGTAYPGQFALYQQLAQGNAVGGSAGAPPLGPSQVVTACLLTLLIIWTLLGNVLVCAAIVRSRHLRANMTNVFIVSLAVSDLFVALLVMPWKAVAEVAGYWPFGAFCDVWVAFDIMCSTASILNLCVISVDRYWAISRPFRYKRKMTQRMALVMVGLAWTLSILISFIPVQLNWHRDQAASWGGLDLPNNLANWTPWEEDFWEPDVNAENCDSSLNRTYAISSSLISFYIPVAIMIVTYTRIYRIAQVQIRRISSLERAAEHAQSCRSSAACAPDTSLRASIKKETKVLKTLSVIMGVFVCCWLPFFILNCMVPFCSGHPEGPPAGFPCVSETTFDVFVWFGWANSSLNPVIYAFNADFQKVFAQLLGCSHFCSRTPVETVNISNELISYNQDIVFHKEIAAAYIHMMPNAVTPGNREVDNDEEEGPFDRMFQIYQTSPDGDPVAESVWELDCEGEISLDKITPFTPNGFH
Chain of human α7 neuronal nicotinic receptor (P36544 23-502): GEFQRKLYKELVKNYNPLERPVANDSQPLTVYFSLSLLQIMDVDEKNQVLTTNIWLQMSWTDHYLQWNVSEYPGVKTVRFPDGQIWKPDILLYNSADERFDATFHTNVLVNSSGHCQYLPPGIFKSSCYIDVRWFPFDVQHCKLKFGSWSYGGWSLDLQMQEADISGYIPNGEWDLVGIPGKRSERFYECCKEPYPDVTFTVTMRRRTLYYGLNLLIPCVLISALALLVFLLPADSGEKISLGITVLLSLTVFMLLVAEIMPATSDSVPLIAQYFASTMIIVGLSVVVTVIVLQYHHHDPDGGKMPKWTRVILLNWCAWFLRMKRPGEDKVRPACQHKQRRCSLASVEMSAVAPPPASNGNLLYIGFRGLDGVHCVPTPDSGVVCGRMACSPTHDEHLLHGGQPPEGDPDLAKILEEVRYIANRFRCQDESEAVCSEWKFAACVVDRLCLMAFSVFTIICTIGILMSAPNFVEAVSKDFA
Chain of human α4β2 neuronal nicotinic receptor (P43681 29-627 limits assumed): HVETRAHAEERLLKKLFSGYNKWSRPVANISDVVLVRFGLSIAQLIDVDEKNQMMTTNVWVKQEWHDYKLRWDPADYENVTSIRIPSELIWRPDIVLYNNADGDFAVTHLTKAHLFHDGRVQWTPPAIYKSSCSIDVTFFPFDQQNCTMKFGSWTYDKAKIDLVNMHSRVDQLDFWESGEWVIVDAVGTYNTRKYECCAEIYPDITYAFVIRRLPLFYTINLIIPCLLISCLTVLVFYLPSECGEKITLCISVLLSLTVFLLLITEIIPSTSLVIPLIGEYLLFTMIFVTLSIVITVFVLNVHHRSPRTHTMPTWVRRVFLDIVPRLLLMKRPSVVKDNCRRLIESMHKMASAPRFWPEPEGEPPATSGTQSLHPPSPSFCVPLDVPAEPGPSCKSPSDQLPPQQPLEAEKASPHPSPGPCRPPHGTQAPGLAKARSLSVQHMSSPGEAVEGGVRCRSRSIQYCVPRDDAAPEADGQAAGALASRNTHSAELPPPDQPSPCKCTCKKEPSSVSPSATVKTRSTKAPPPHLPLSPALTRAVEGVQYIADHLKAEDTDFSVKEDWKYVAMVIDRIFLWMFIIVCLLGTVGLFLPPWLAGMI
Chain of human α4β2 neuronal nicotinic receptor (P17787 26-502): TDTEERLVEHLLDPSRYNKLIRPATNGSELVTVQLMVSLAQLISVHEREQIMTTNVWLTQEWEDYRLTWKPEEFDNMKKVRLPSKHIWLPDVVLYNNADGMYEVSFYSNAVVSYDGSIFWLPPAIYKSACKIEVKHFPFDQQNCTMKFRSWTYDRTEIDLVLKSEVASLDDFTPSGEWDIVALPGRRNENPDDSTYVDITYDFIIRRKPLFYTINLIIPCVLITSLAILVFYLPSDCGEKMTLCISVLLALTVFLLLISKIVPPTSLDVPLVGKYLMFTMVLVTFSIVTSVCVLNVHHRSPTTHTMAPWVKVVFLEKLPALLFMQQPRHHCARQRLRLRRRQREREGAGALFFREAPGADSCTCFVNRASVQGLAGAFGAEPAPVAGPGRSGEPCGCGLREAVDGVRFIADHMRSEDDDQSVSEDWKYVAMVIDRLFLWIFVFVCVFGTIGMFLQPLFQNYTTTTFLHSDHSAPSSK
Chain of human muscle-type nicotinic receptor (P02708 21-457): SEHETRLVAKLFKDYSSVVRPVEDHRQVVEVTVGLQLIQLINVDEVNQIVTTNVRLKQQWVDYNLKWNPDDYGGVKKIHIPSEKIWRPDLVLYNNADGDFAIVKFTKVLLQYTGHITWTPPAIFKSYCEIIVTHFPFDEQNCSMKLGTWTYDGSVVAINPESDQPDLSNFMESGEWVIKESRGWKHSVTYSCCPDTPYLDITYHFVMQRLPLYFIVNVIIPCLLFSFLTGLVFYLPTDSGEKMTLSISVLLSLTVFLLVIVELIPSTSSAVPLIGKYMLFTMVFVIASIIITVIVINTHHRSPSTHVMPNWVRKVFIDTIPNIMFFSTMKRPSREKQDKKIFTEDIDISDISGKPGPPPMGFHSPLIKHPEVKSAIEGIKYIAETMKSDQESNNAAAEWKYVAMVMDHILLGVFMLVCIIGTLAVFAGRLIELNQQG
Chain of human muscle-type nicotinic receptor (P07510 23-517): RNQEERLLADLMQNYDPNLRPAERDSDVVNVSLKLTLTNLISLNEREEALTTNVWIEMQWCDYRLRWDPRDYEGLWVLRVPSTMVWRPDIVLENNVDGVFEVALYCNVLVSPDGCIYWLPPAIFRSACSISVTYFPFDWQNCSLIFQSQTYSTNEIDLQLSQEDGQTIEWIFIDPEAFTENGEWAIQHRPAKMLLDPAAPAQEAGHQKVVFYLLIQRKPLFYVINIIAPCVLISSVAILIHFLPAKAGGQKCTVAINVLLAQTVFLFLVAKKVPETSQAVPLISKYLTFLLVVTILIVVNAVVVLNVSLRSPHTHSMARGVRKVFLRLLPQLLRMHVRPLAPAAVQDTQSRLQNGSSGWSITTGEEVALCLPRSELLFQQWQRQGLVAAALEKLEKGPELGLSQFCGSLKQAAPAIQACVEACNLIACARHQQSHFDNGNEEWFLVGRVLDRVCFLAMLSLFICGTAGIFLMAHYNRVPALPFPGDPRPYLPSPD
Chain of human muscle-type nicotinic receptor (P11230 24-501, further chain): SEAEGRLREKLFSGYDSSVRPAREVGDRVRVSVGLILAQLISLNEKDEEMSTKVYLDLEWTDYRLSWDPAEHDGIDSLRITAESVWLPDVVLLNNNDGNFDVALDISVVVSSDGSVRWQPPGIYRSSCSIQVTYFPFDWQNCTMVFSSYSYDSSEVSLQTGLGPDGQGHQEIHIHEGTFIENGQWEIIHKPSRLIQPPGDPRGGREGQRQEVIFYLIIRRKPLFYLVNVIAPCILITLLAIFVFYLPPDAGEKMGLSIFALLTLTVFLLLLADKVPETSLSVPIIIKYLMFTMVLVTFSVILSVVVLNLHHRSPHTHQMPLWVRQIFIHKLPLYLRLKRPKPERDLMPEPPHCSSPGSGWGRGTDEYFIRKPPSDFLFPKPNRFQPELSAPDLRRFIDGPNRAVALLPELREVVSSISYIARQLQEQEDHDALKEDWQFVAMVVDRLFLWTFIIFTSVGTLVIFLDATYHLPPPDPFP
Chain of human muscle-type nicotinic receptor (Q07001 22-517): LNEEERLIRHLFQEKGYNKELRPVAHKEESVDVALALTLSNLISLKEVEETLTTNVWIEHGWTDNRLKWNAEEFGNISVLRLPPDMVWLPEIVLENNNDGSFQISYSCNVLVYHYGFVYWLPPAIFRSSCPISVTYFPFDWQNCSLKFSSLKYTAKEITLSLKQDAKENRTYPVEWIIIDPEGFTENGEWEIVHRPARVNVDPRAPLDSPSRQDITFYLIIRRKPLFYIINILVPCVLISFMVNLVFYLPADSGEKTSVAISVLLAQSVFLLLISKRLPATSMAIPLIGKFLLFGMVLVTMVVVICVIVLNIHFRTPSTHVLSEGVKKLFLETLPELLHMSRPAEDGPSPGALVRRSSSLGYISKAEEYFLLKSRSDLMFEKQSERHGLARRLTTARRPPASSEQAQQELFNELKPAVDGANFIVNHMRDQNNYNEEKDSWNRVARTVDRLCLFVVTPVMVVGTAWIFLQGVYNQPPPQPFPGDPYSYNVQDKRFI
T2 sequence (P21728 whole entry): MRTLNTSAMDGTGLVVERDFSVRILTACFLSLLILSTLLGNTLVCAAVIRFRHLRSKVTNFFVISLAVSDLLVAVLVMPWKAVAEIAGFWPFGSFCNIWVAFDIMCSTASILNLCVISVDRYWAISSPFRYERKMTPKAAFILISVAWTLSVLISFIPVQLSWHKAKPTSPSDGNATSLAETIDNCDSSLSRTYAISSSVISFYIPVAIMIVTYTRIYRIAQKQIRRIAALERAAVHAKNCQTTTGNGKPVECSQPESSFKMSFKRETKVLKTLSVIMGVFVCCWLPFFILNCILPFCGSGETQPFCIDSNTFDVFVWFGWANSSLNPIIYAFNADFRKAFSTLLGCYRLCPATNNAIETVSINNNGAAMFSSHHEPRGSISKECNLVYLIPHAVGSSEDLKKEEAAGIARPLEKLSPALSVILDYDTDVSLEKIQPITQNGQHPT
T3 sequence (P21918 whole entry): as the sequence (P21918 whole entry) above

OC(c1cccnc1)C12CC(CCN1)C2 (stereo not drawn) [Comp.11]
inhibition at 50 pM [1]: -1% | inhibition at 0.0005 µM [2]: 17%

CCN1CCC2CC1(C(=O)c1ccc(Cl)nc1)C2 [Comp.9m]
inhibition at 1 µM [3]: -13% | inhibition at 1 µM [4]: 4% | inhibition at 50 pM [1]: -1% | inhibition at 0.0005 µM [2]: -8%

Clc1ccc(C2CC3CCC2N3)cn1 (stereo not drawn) [epibatidine]
analgesic potency, higher than that of morphine [5]: about 200 fold

NCC12CC(CCN1Cc1ccccn1)C2 [Comp.20]
inhibition at 1 µM [6]: -3% | inhibition at 1 µM [7]: 31% | inhibition at 1 µM [3]: 6% | inhibition at 1 µM [4]: 11% | inhibition at 50 pM [1]: 12% | inhibition at 0.0005 µM [2]: 32%

CCN1CCC2CC1(C(O)c1cccnc1)C2 (stereo not drawn) [Comp.19a]
inhibition at 1 µM [6]: 9% | inhibition at 1 µM [3]: -2% | inhibition at 1 µM [4]: 24% | inhibition at 50 pM [1]: 3% | inhibition at 0.0005 µM [2]: 33%
